Common to all, as to format: cell-based
Test [1] concerns lymphoma cell line WSU-DLCL2. The test can be described thus: Standard 6-day growth-death assay, WSU-DLCL2. The settings on record: single agent or fixed 1:1 combination; for EC50 / IC50: Homo sapiens, WSUDLCL2, 144 h; for EC50: average of n=2, read-out: dEC50; for IC50: average of n=2, read-out: gIC50; for Ymin-T0 / gIC100: average of n=2. How it is done: (§1) The majority cell lines were obtained from GSK BioCat group, American Type Culture Collection (ATCC), or the Deutsche Sammlung von Mikroorganismen and Zellbulturen (DSMZ). All cell lines were maintained in growth medium in T75 cm^2 flasks, incubated at 37° C. with 5% CO2 and split every 3 to 4 days. Growth media conditions and cell line information are detailed in Table 1. Cells were counted using the Vi-Cell Analyzer (Beckman Coulter ViCell) to obtain viable cell counts.
(§2) Optimal cell seeding density was determined for all cell lines by monitoring proliferation over a range of seeding densities in 384-well format and identifying the seeding density at which cells grew logarithmically throughout six days. 50 uL of cells per well were plated in 384-well plates at the optimal seeding density in preferred supplemented culture media. Three plates were prepared per cell line and incubated overnight at 37° C. in 5% CO2.
(§3) In these studies, lymphoma cell lines were treated with PRMT5 inhibitor, compound A and BCL-2 targeted inhibitor, ABT-199 single agent or in combination using a fixed 1:1 ratio of each inhibitor over a 20-point titration. For compound A single and fixed 1:1 ratio combination with ABT-199 cell proliferation assay, cells were treated in duplicate with a 20-point, two-fold dilution series of Compound A, ABT-199 (≥14 μM top dose) single or combo treatment, and ≤0.15% DMSO final concentration. Plates were incubated for six days at the conditions described above. Cell growth was measured using CellTiter-Glo (Promega) and luminescence signal was detected with a BioTek Synergy Neo microplate reader. A plate of untreated cells was read at the time of compound/biologic addition to determine the T0 value representing the starting number of cells. Data were fit with a four-parameter equation to generate a concentration response curve using Assay Client software.
(§4) Results were background corrected by subtraction of values from wells containing no cells, expressed as a percentage of the T0 value (value at time=0), and plotted against compound concentration. The T0 value was normalized to 100% and represents the number of cells present at the time of compound addition. The cellular response was determined for each compound using a 4- or 6-parameter curve fit of cell viability against concentration using Assay Client software. Growth IC50 (gIC50) values correspond to the concentration intersecting the mid-point of the growth window (between DMSO and T0 values). Growth IC100 (gIC100) values correspond to the concentration at which 100% growth inhibition is achieved, based on the growth window. The Ymin−T0 value, a measure of net population cell growth or death, is calculated by subtracting the T0 value (100%) from the Ymin value (%) that is determined from the fit of the concentration response curve. Death EC50 (dEC50) values correspond to the concentration at which 50% net cell death is observed.
(§5) Individual curves were quality checked for three criteria: outlier data points, cell growth (population doubling ≥1.5), and proper curve fitting. […] Individual curves were QC checked for outlier data points, cell growth (population doubling ≥1.5), and proper curve fitting. Obvious outlier data points were omitted only as needed to ensure proper curve fit.
(§6) For fixed ratio screening, combination activity was assessed by the fold change in gIC50 compared to the 2 single agent curves by dividing the compound ratio as necessary. Combinations showing >3-fold and >5-fold change from single agent are described as below: • Fold changes ≥5 are considered to represent strong synergy. • Fold changes between 3.0 and 4.9 are considered to represent weak synergy. • Fold changes <3 are considered to represent no synergy.

Test [2] relates to lymphoma cell line WSU-FSCCL. The test can be described thus: Standard 6-day growth-death assay, WSU-FSCCL. The settings on record: single agent or fixed 1:1 combination; for EC50 / IC50: 144 h; for EC50: average of n=2, read-out: dEC50; for IC50: average of n=2, read-out: gIC50; for Ymin-T0 / gIC100: average of n=2. On the procedure:
as §1, §2, §3, §4, §5, §6

Test [3] deals with lymphoma cell line OCI-LY3. The test can be described thus: Standard 6-day growth-death assay, OCI-LY3. The settings on record: single agent or fixed 1:1 combination; for EC50 / IC50: Homo sapiens, 144 h; for EC50: average of n=2, read-out: dEC50; for IC50: average of n=2, read-out: gIC50; for Ymin-T0 / gIC100: average of n=2. How it is done: as §1, §2, §3, §4, §5, §6
In test [4] the test system is lymphoma cell line NU-DUL-1. The test can be described thus: Standard 6-day growth-death assay, NU-DUL-1. The settings on record: single agent or fixed 1:1 combination; for IC50: average of n=2, read-out: gIC50; for Ymin-T0 / gIC100: average of n=2. How it is done:
as §1, §2, §3, §4, §5, §6

Consider two molecules from patent US20210386738A1, “COMBINATION OF PRMT5 INHIBITORS AND BCL-2 INHIBITORS” (GLAXOSMITHKLINE INTELLECTUAL PROPERTY DEVELOPMENT LIMITED, priority 2018, published 2021).

As to `CC1(C)CCC(CN2CCN(c3ccc(C(=O)NS(=O)(=O)c4ccc(NCC5CCOCC5)c([N+](=O)[O-])c4)c(Oc4cnc5[nH]ccc5c4)c3)CC2)=C(c2ccc(Cl)cc2)C1` [ABT-199, venetoclax, reference compound], the EC50 in test [1] was > 14.7 µM; in test [2], 14.6 µM; in test [3], 7.51 µM. Moreover, the IC50 in test [1] is 6.92 µM; in test [2], 0.238 µM; in test [3] it was 1.47 µM; in test [4] (Homo sapiens, 144 h), 3.02 µM. Moreover, the Ymin-T0 in test [1] is recorded as 3182%; in test [2], −49%; in test [3], −76%; in test [4] it was −45%. The gIC100 in test [1] is > 14.7 µM; in test [2], 10.53 µM; in test [3], 7.157 µM; in test [4], 4.832 µM.
Regarding `O=C(NC[C@H](O)CN1CCc2ccccc2C1)c1ccnc(NC2CCC2)c1` [Compound A], the EC50 in test [1] was > 14.7 µM; in test [2] it was > 14.7 µM; in test [3] it was > 14.7 µM; in test [4] (Homo sapiens, 144 h, average of n=2, read-out: dEC50), > 14.7 µM. Also, the IC50 in test [1] worked out at 1.17 µM; in test [2], 0.388 µM; in test [3], 1.96 µM; in test [4] (Homo sapiens, 144 h) it was 3.73 µM. For the same molecule, the Ymin-T0 is 2474% in test [1], 224% in test [2], 488% in test [3] and −11% in test [4]. For the same molecule, the gIC100 in test [1] was > 14.7 µM; in test [2], 14.663 µM; in test [3], 14.663 µM; in test [4], 12.659 µM.
